ChEMBL document CHEMBL1149671, “Enantiopure five-membered cyclicdiamine derivatives as potent and selective inhibitors of factor Xa. Improving in vitro metabolic stability via core modifications” (Bioorg Med Chem Lett, 2007)

Assays:
Coagulation factor X = Coagulation factor X (Homo sapiens, UniProt P00742); assay: Inhibition of human factor 10a
[1] = Cytotoxicity against HEK cells; format: cell-based; conditions: Homo sapiens, HEK293

Sequence of Coagulation factor X (P00742 41-179 limits assumed): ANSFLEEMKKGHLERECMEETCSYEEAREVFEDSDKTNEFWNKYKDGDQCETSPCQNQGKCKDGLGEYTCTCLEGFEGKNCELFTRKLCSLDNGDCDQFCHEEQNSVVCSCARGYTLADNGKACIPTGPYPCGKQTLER
Sequence of Coagulation factor X (P00742 235-488 limits assumed): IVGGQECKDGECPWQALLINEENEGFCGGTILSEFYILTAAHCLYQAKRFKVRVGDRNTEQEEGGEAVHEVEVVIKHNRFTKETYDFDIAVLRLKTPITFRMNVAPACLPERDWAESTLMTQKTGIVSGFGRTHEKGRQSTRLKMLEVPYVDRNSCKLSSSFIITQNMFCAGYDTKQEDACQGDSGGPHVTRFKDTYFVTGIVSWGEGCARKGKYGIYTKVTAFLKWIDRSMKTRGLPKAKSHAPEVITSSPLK

| SMILES | Ki (Coagulation factor X) | IC50 [1] |
| --- | --- | --- |
| O=C(N[C@H]1CN(C(=O)C2CC2)C[C@H]1NC(=O)c1ccc(Cl)s1)c1ccc(-n2ccccc2=O)cc1 | 2.1 nM | > 100000 nM |
| O=C(N[C@H]1CN(C(=O)c2ccccc2)C[C@H]1NC(=O)c1ccc(Cl)s1)c1ccc(-n2ccccc2=O)cc1 | 2.2 nM | > 100000 nM |
| COCC(=O)N1C[C@H](NC(=O)c2ccc(-n3ccccc3=O)cc2)[C@H](NC(=O)c2ccc(Cl)s2)C1 | 0.36 nM | > 100000 nM |
| COCCOC(=O)N1C[C@H](NC(=O)c2ccc(-n3ccccc3=O)cc2)[C@H](NC(=O)c2ccc(Cl)s2)C1 | 0.93 nM | > 100000 nM |
| CC(C)S(=O)(=O)N1C[C@H](NC(=O)c2ccc(-n3ccccc3=O)cc2)[C@H](NC(=O)c2ccc(Cl)s2)C1 | 1.7 nM | > 100000 nM |
| O=C(N[C@H]1COC[C@H]1NC(=O)c1ccc2c(Cl)c[nH]c2c1)c1ccc(-n2ccccc2=O)cc1 | 2.6 nM |  |
| O=C(N[C@H]1CNC[C@H]1NC(=O)c1ccc2c(Cl)c[nH]c2c1)c1ccc(-n2ccccc2=O)cc1 | 18 nM |  |
| CC(=O)N1C[C@H](NC(=O)c2ccc(-n3ccccc3=O)cc2)[C@H](NC(=O)c2ccc3c(Cl)c[nH]c3c2)C1 | 3.9 nM |  |
| CCOC(=O)N1C[C@H](NC(=O)c2ccc(-n3ccccc3=O)cc2)[C@H](NC(=O)c2ccc3c(Cl)c[nH]c3c2)C1 | 2.8 nM |  |
| CCC(=O)N1C[C@H](NC(=O)c2ccc(-n3ccccc3=O)cc2)[C@H](NC(=O)c2ccc(Cl)s2)C1 | 2 nM | > 100000 nM |
| CC(C)(C)C(=O)N1C[C@H](NC(=O)c2ccc(-n3ccccc3=O)cc2)[C@H](NC(=O)c2ccc(Cl)s2)C1 | 1.7 nM | > 100000 nM |
| O=C(N[C@H]1CN(C(=O)OCC2c3ccccc3-c3ccccc32)C[C@H]1NC(=O)c1ccc2c(Cl)c[nH]c2c1)c1ccc(-n2ccccc2=O)cc1 | 163 nM | > 100000 nM |
| O=C(N[C@H]1C[C@H](C(=O)NC2CC2)C[C@H]1NC(=O)c1ccc(Cl)s1)c1ccc(-n2ccccc2=O)cc1 | 1.6 nM |  |
| COC(=O)C1C[C@H](NC(=O)c2ccc(-n3ccccc3=O)cc2)[C@H](NC(=O)c2ccc3c(Cl)c[nH]c3c2)C1 (some centres not stated) | 3 nM |  |
| O=C(N[C@H]1CN(C(=O)N2CCCC2)C[C@H]1NC(=O)c1ccc(Cl)s1)c1ccc(-n2ccccc2=O)cc1 | 1.7 nM | > 100000 nM |
| COCCNC(=O)[C@H]1C[C@H](NC(=O)c2ccc(-n3ccccc3=O)cc2)[C@H](NC(=O)c2ccc(Cl)s2)C1 | 2.9 nM |  |
| O=C(N[C@H]1C[C@H](C(=O)N2CCOCC2)C[C@H]1NC(=O)c1ccc(Cl)s1)c1ccc(-n2ccccc2=O)cc1 | 1.6 nM |  |

Continued, in another order:

| Ki (Coagulation factor X) | SMILES | IC50 [1] |
| --- | --- | --- |
| 0.21 nM | O=C(N[C@@H]1Cc2ccccc2[C@@H]1NC(=O)c1ccc2c(Cl)c[nH]c2c1)c1ccc(-n2ccccc2=O)cc1 |  |
| 230 nM | O=C(N[C@@H]1Cc2ccccc2[C@@H]1NC(=O)c1ccc(Cl)s1)c1ccc(-n2ccccc2=O)cc1 |  |
| 27 nM | O=C(N[C@H]1Cc2ccccc2[C@H]1NC(=O)c1ccc(Cl)s1)c1ccc(-n2ccccc2=O)cc1 |  |
| 10900 nM | O=C(N[C@@H]1c2ccccc2C[C@@H]1NC(=O)c1ccc(Cl)s1)c1ccc(-n2ccccc2=O)cc1 |  |
| 1 nM | O=C(N[C@@H]1Cc2ccccc2[C@@H]1NC(=O)c1ccc(-n2ccccc2=O)cc1)c1ccc2c(Cl)c[nH]c2c1 |  |
| 0.53 nM | COC(=O)[C@H]1C[C@H](NC(=O)c2ccc(-n3ccccc3=O)cc2)[C@H](NC(=O)c2ccc(Cl)s2)C1 |  |
| 2.1 nM | CN(C)C(=O)[C@H]1C[C@H](NC(=O)c2ccc(-n3ccccc3=O)cc2)[C@H](NC(=O)c2ccc(Cl)s2)C1 |  |
| 4.5 nM | O=C(N[C@H]1CN(C(=O)OCC2c3ccccc3-c3ccccc32)C[C@H]1NC(=O)c1ccc(Cl)s1)c1ccc(-n2ccccc2=O)cc1 |  |
| 0.84 nM | O=C(N[C@H]1Cc2ccccc2[C@H]1NC(=O)c1ccc2c(Cl)c[nH]c2c1)c1ccc(-n2ccccc2=O)cc1 |  |
| 0.39 nM | COC(=O)C1C[C@H](NC(=O)c2ccc(-n3ccccc3=O)cc2)[C@H](NC(=O)c2ccc(Cl)s2)C1 (some centres not stated) |  |
| 7.9 nM | O=C(N[C@H]1Cc2ccccc2[C@H]1NC(=O)c1ccc(-n2ccccc2=O)cc1)c1ccc2c(Cl)c[nH]c2c1 |  |
